Results reported in ChEMBL document CHEMBL1201862, “PubChem BioAssay data set” (2004).
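Grown in 96-well plates, cells were treated for 48 hours with each compound at five concentrations. Insufficient inhibition: endpoint recorded as highest concentration tested. Here, GI50 denotes the concentration required for 50% inhibition of growth.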 Calls of active or inactive are those of the source. Cut-off read from the data, not from the text of the source: active = GI50 up to about 1.1 µM and inactive = higher.

How the values were obtained:
Test in all cases: NCI-60 cell line screen, 48 h
OVCAR-4 = tested on: OVCAR-4
OVCAR-8 = tested on: OVCAR-8
SK-MEL-5 = tested on: SK-MEL-5
SK-MEL-28 = tested on: SK-MEL-28
PC-3 = tested on: PC-3
SF-295 = tested on: SF-295
NCI/ADR-RES = tested on: NCI/ADR-RES
NCI-H226 = tested on: NCI-H226
TK-10 = tested on: TK-10
SN12C = tested on: SN12C
LOX IMVI = tested on: LOX IMVI
HL-60 = tested on: HL-60
SR = tested on: SR
CAKI-1 = tested on: CAKI-1
SW-620 = tested on: SW-620
NCI-H460 = tested on: NCI-H460
M14 = tested on: M14
MCF7 = tested on: MCF7
SK-OV-3 = tested on: SK-OV-3
Malme-3M = tested on: Malme-3M

Structure (SMILES) | GI50 (OVCAR-4) | GI50 (OVCAR-8) | GI50 (SK-MEL-5) | GI50 (SK-MEL-28) | GI50 (PC-3) | GI50 (SF-295) | GI50 (NCI/ADR-RES) | GI50 (NCI-H226) | GI50 (TK-10) | GI50 (SN12C) | GI50 (LOX IMVI) | GI50 (HL-60) | GI50 (SR) | GI50 (CAKI-1) | GI50 (SW-620) | GI50 (NCI-H460) | GI50 (M14) | GI50 (MCF7) | GI50 (SK-OV-3) | GI50 (Malme-3M)
COc1ccc(-c2c(-c3ccccc3)c(C)c3ccccn23)cc1 | > 100 µM (inactive) | > 100 µM (inactive) | 77.8 µM (inactive) | 79.8 µM (inactive) | 84.3 µM (inactive) | > 100 µM (inactive) | > 100 µM (inactive) | > 100 µM (inactive) | > 100 µM (inactive) | > 100 µM (inactive) | 83.6 µM (inactive) | 48.4 µM (inactive) | 26.4 µM (inactive) | > 100 µM (inactive) | 58.9 µM (inactive) | 59.2 µM (inactive) | > 100 µM (inactive) | 57.7 µM (inactive) | > 100 µM (inactive) | 95.9 µM (inactive)
CC(NNC(=O)c1cc[n+]([BH2-]C#N)cc1)c1ccc(Cl)c(Cl)c1 (stereo not drawn) | 30.9 µM (inactive) | 42.8 µM (inactive) | 19.7 µM (inactive) | 40.8 µM (inactive) | 22.9 µM (inactive) | 29.6 µM (inactive) | 30.5 µM (inactive) | 22.4 µM (inactive) | 28.6 µM (inactive) | 34.5 µM (inactive) | 28.9 µM (inactive) | 25.8 µM (inactive) | 36 µM (inactive) | 18.1 µM (inactive) | 45.1 µM (inactive) | 27.2 µM (inactive) | 38.1 µM (inactive) | 26.9 µM (inactive) | 27 µM (inactive) | 30.9 µM (inactive)
COC(=O)C(NC(=O)OC(C)(C)C)P(=O)(OC)OC (stereo not drawn) | > 100 µM (inactive) | > 100 µM (inactive) | > 100 µM (inactive) | > 100 µM (inactive) | > 100 µM (inactive) | > 100 µM (inactive) | > 100 µM (inactive) | > 100 µM (inactive) | > 100 µM (inactive) | > 100 µM (inactive) | > 100 µM (inactive) | > 100 µM (inactive) | > 100 µM (inactive) | > 100 µM (inactive) | > 100 µM (inactive) |  | > 100 µM (inactive) | > 100 µM (inactive) | > 100 µM (inactive) | > 100 µM (inactive)
COc1ccc(C2C3CCc4ccccc4C3=NN2S(=O)(=O)c2cccc(C(=O)O)c2OC)cc1 (stereo not drawn) | 19.4 µM (inactive) | 23.6 µM (inactive) | 6.62 µM (inactive) |  | 9.02 µM (inactive) | 9.23 µM (inactive) | 2.81 µM (inactive) | 19.8 µM (inactive) | 22.9 µM (inactive) | 27.3 µM (inactive) | 12.7 µM (inactive) | 7.53 µM (inactive) | 3.8 µM (inactive) | 22.5 µM (inactive) | 6.98 µM (inactive) | 5.66 µM (inactive) | 15.8 µM (inactive) | 2.19 µM (inactive) | 1.8 µM (inactive) | 13.3 µM (inactive)
COC1CC(C)(NC(=O)C(F)(F)F)C2OC(c3ccccc3)OCC2O1 (stereo not drawn) | > 100 µM (inactive) | > 100 µM (inactive) | > 100 µM (inactive) | > 100 µM (inactive) | > 100 µM (inactive) | > 100 µM (inactive) | > 100 µM (inactive) | > 100 µM (inactive) | > 100 µM (inactive) | > 100 µM (inactive) | > 100 µM (inactive) | > 100 µM (inactive) | > 100 µM (inactive) | > 100 µM (inactive) | > 100 µM (inactive) | > 100 µM (inactive) | > 100 µM (inactive) | > 100 µM (inactive) | > 100 µM (inactive) | > 100 µM (inactive)
COc1ccc(NC(=S)c2ccc([N+](=O)[O-])o2)cc1 | 1.55 µM (inactive) | 1.28 µM (inactive) | 0.65 µM (active) | 3.22 µM (inactive) | 1.32 µM (inactive) | 3.6 µM (inactive) | 0.678 µM (active) | 0.82 µM (active) | 3.07 µM (inactive) | 2.13 µM (inactive) | 1.12 µM (inactive) | 1.99 µM (inactive) | 0.927 µM (active) | 3.44 µM (inactive) | 0.918 µM (active) | 2.18 µM (inactive) | 2.88 µM (inactive) | 1.8 µM (inactive) | 12.3 µM (inactive) | 2.37 µM (inactive)
CN(C)c1cccc2c1C(=O)C=CC21CCc2ccc(N(C)C)c3c(N(C)C)ccc1c23 (stereo not drawn) | 14.8 µM (inactive) | 13.7 µM (inactive) | 16.3 µM (inactive) | 15.4 µM (inactive) | 11.6 µM (inactive) | 18.8 µM (inactive) | 56.8 µM (inactive) | 17.1 µM (inactive) | 14.6 µM (inactive) | 12.2 µM (inactive) | 15.1 µM (inactive) | 5.01 µM (inactive) | 12 µM (inactive) | 21.4 µM (inactive) | 16.1 µM (inactive) | 9.04 µM (inactive) | 14.2 µM (inactive) | 11.7 µM (inactive) | 10.1 µM (inactive) | 11.5 µM (inactive)
C[N+]1(C)CN(c2ccccc2)C2(CCN(CCCC(=O)c3cccs3)CC2)C1=O | 96.8 µM (inactive) | > 100 µM (inactive) | 28.1 µM (inactive) | > 100 µM (inactive) | > 100 µM (inactive) | > 100 µM (inactive) | > 100 µM (inactive) | > 100 µM (inactive) | > 100 µM (inactive) | > 100 µM (inactive) | 58.1 µM (inactive) | > 100 µM (inactive) | 60 µM (inactive) | > 100 µM (inactive) | > 100 µM (inactive) | 57 µM (inactive) | 23.2 µM (inactive) | 53.8 µM (inactive) | > 100 µM (inactive) | > 100 µM (inactive)
